{"source": "patent US6534514B1", "about": "“Kappa opioid receptor antagonists” (Regents of the University of Minnesota, priority 1993, dated 2003)", "key": {"delta opioid receptors [1]": {"molecular_target": "T1, delta opioid receptors (Mus musculus, UniProt P32300)", "T1 sequence (P32300 whole entry)": "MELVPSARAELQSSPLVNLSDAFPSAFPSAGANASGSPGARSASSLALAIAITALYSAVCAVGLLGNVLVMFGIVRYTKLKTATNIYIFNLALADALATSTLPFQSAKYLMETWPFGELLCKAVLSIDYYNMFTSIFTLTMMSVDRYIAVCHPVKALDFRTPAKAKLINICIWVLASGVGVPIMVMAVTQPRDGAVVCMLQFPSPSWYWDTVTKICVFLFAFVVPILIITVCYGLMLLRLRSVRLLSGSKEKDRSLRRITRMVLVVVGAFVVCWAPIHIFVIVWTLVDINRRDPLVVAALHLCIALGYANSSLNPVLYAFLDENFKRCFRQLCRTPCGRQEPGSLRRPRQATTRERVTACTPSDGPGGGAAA", "experiment": "Mouse vas deferens (MVD), antagonism of DADLE (D)", "type": "cell-based", "set-up": "Both vasa deferentia were dissected out of mice and mounted singly; from tissue; host or cells: mouse vas deferens (Swiss-Webster males) for A3; whole mouse in vivo for A7", "details": "antagonist 100 nM; agonist DADLE", "protocol": "2. Mouse Vas Deferens (MVD). This assay was performed according to the description by G. Henderson et al., Brit. […] Both vasa deferentia were dissected out of mice and mounted singly through two platinum ring electrodes in a 10 ml organ bath. The bath contained Krebs bicarbonate solution that was continuously bubbled with 95% O2 and 5% CO2. The organ bath was maintained at 37° C. The tissue was attached to an isometric transducer and stimulated transmurally with rectangular pulses ([…], 1 ms duration, supramaximal voltage). Drugs were added cumulatively to the bath in preselected amounts and washed out after noting their maximum effects.\n(§1) Concentration-response curves were obtained in the absence (control) and the presence of the antagonist are expressed as IC50 values. The IC50 ratio represents the IC50 in the presence of the antagonist divided by the control IC50 value in the same tissue. Therefore, a high IC50 ratio represents a correspondingly high degree of antagonism at a particular receptor. This IC50 ratio was employed to calculate the Ke value using the equation Ke=[antagonist]/(IC50 ratio-1). Therefore, a low Ke represents a correspondingly high degree of binding at a particular receptor."}, "mu opioid receptors [2]": {"molecular_target": "T2, mu opioid receptors (Mus musculus, UniProt P42866)", "T2 construct": "tested in vivo using the mouse writhing procedure of G. Hayashi et al; from tissue; host or cells: whole mouse in vivo (s.c. dosing)", "T2 sequence (P42866 whole entry)": "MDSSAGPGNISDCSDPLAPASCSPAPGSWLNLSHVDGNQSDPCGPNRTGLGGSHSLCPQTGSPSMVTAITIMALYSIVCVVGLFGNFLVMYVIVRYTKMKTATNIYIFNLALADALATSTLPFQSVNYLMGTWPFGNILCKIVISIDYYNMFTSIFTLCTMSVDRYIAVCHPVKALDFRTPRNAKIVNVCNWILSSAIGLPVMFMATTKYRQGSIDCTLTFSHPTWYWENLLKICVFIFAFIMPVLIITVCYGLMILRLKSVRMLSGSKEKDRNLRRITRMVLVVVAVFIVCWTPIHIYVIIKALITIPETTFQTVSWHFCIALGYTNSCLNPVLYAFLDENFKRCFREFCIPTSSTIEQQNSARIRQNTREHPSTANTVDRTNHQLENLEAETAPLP", "experiment": "Mouse writhing procedure, antagonism of morphine", "type": "in vivo", "details": "mice; agonist 50 nmol; antagonist 4 mg/kg sc", "from_the_text": "(§2) Physiological data for guinea pig ileal longitudinal muscle (GPI) was obtained by the methodology of H. P. Rang, “Stimulant Actions of Volatile Anaesthetics on Smooth Muscle,” Brit. J. Pharmacol., 22, 356 (1964) on Dunkin-Hartley males; mouse vas deferens (MVD) data was obtained using Henderson's method on Swiss-Webster males (G. Henderson et al., “A New Example of a Morphine-Sensitive Neuroeffector Junction: Adrenergic Transmission in the Mouse vas Deferens,” Brit. J. Pharmacol., 46, 764 (1972). Guinea pig brain membrane binding assays were done on Dunkin-Hartley males using a modification of the method of L. L. Werling et al., “Opioid Binding to Rat and Guinea Pig Neural Membranes in the Presence of Physiological Cations at 37° C.,” J. Pharmacol. Exp. Ther., 233 722 (1985). In vivo assays were done s.c. on mice.\n(§3) Compound δ was tested in vivo using the mouse writhing procedure of G. Hayashi et al., Eur. J. Pharmacol., 85, 163 (1982)."}, "mu opioid receptors [3]": {"molecular_target": "mu opioid receptors", "details": "antagonist 100 nM; agonist morphine", "protocol": "(§4) Physiological data for guinea pig ileal longitudinal muscle (GPI) was obtained by the methodology of H. P. Rang, “Stimulant Actions of Volatile Anaesthetics on Smooth Muscle,” Brit. […] In vivo assays were done s.c. on mice.\n(§5) 1. Guinea Pig Ileal Longitudinal Muscle (GPI). Ilea from guinea pigs were taken approximately 10 cm from the ileocecal junction, and a strip of longitudinal muscle with the myenteric plexus attached was prepared by the method of […] et al., Brit. […] A 1 cm portion of this strip was then mounted between two platinum electrodes placed in a 10 ml organ bath and connected to an isometric transducer; contractions were recorded on a polygraph. Contractions of the ileal strip were initiated by supramaximal rectangular pulses in all preparations (80 V of 0.5 ms duration at a frequency of 0.1 Hz). […] The organ bath was maintained at 36°-37° C. The longitudinal muscle strip was allowed to equilibrate with continuous stimulation for a minimum of 90 min. Cumulative concentration-response curves were determined after drugs were added to the bath in preselected amounts and washed out with buffer after noting their maximum effects.\nas §1"}, "kappa opioid receptors": {"molecular_target": "T3, kappa opioid receptors (Cavia porcellus, UniProt P41144)", "T3 construct": "a strip of longitudinal muscle with the myenteric plexus attached was prepared; from tissue; host or cells: guinea pig ileal longitudinal muscle with myenteric plexus (Dunkin-Hartley males)", "T3 sequence (P41144 whole entry)": "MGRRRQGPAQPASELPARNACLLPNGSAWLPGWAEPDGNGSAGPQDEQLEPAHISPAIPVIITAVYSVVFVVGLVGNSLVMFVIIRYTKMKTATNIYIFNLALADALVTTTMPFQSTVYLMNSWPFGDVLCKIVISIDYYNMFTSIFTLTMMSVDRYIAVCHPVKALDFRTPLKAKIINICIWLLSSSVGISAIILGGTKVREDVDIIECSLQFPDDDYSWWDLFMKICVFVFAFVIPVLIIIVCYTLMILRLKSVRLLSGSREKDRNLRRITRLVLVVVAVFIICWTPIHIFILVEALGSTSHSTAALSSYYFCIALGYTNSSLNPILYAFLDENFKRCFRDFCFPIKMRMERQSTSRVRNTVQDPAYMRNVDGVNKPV", "experiment": "Guinea pig ileal longitudinal muscle (GPI), antagonism of ethylketazocine (EK)", "type": "cell-based", "protocol": "as §4, §5, §1"}, "kappa receptors": {"molecular_target": "T4, kappa receptors (Mus musculus, UniProt P33534)", "T4 construct": "tested in vivo using the mouse writhing procedure of G. Hayashi et al; from tissue; host or cells: whole mouse in vivo (s.c. dosing)", "T4 sequence (P33534 whole entry)": "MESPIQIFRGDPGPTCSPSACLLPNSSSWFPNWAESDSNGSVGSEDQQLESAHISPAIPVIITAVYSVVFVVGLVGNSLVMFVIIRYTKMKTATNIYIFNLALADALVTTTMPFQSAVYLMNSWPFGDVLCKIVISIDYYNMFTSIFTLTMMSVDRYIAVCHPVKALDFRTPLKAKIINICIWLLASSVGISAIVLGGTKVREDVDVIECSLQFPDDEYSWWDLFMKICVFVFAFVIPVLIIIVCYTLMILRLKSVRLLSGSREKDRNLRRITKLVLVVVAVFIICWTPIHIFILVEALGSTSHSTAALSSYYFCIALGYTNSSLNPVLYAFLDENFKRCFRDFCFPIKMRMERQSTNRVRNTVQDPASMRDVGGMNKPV", "experiment": "Mouse writhing procedure, antagonism of U50488H", "type": "in vivo, mice", "from_the_text": "as §2, §3"}, "delta opioid receptors [4]": {"molecular_target": "T1, delta opioid receptors", "experiment": "Mouse writhing procedure, antagonism of DADLE", "type": "in vivo", "details": "mice; agonist 50 nmol; antagonist 4 mg/kg sc", "from_the_text": "as §2, §3"}}}
{"substance": "17-(Cyclopropylmethyl)-6,7-dehydro-4,5α-epoxy-3,14-dihydroxy-5-[(N^2-pentanamidino)methyl]-6,7-2′,3′-indolomorphinan Dihydrochloride [Compound 6]", "values": [{"measurement": "IC50 ratio, D (MVD)", "setting": "delta opioid receptors [1]", "value": "4.71 ± 1.06"}, {"measurement": "Ke, D (MVD)", "setting": "delta opioid receptors [1]", "value": 26.9, "unit": "nM"}, {"measurement": "ED50 ratio [(agonist + 6)/agonist control], morphine", "setting": "mu opioid receptors [2]", "value": 1.63}, {"measurement": "IC50 ratio, M (GPI)", "setting": "mu opioid receptors [3]", "value": "15.7 ± 4.0"}, {"measurement": "Ke, M (GPI)", "setting": "mu opioid receptors [3]", "value": 6.80, "unit": "nM"}, {"measurement": "Selectivity κ/μ", "setting": "kappa opioid receptors; GPI EK versus GPI morphine", "value": 28}, {"measurement": "Selectivity κ/δ", "setting": "kappa opioid receptors; GPI EK versus MVD DADLE", "value": 93}, {"measurement": "kappa antagonist potency compared with norBNI", "setting": "kappa opioid receptors; GPI, EK", "value": "more potent"}, {"measurement": "kappa selectivity compared with norBNI", "setting": "kappa opioid receptors; GPI/MVD", "value": "more selective"}, {"measurement": "potency and selectivity compared with norBNI", "setting": "kappa opioid receptors; GPI/MVD", "value": "more potent and selective"}, {"measurement": "Kb", "setting": "kappa opioid receptors; antagonist 100 nM, 15 min incubation, agonist ethylketazocine, Ke=[antagonist]/(IC50 ratio-1)", "value": 0.23, "unit": "nM"}, {"measurement": "IC50 ratio, EK (GPI)", "setting": "kappa opioid receptors; antagonist 100 nM, IC50 agonist + antagonist/IC50 agonist, agonist ethylketazocine", "value": "439 ± 100"}, {"measurement": "ED50 ratio [(agonist + 6)/agonist control], U50488H", "setting": "kappa receptors; mice, agonist 50 nmol, antagonist 4 mg/kg sc", "value": 3.77}, {"measurement": "antagonist selectivity in the whole animal model", "setting": "kappa receptors; mouse writhing, 4 mg/kg sc", "value": "selective kappa antagonist"}, {"measurement": "ED50 ratio [(agonist + 6)/agonist control], DADLE", "setting": "delta opioid receptors [4]", "value": 0.25}]}
